# Laboratory results published in US20230085307A1, “PYRIDAZINONE COMPOUND AND HERBICIDE” (NISSAN CHEMICAL CORPORATION, priority 2019, published 2023).
# Legend:
# oval-leafed pondweed [1] = assay: Test Example 1: herbicidal activity, application before weed generation under submerged conditions (Table 16, symbol C); type: in vivo, oval-leafed pondweed (Monochoria vaginalis)
# How it was run: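 Alluvial soil was flooded to 4 cm depth, weed seeds were sown mixed and 2.5-leaf rice seedlings were transplanted. On sowing day, the compound's emulsion, diluted in water to a set dose, was applied to the water surface. Plants grew at 25–30 °C and were scored 0–5 after three weeks.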
# late watergrass = assay: Test Example 2: herbicidal activity, application during weed generation under submerged conditions (Table 17, symbol A); type: in vivo, late watergrass (Echinochloa oryzicola); conditions: application during weed generation, submerged conditions
# How it was run: (§1)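 Wagner pot, alluvial soil, 4 cm flood; mixed sowing of all species; greenhouse 25° C.–30° C. Emulsifiable formulation, water-diluted to predetermined dose, applied to paddy water at 1–2 leaf stage. Effect rated at 3 wk using the earlier test's scoring criteria.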
# Japanese bulrush = assay: Test Example 2: herbicidal activity, application during weed generation under submerged conditions (Table 17, symbol B); type: in vivo, Japanese bulrush (Schoenoplectus juncoides); conditions: application during weed generation, submerged conditions
# How it was run: as §1
# oval-leafed pondweed [2] = assay: Test Example 2: herbicidal activity, application during weed generation under submerged conditions (Table 17, symbol C); type: in vivo, oval-leafed pondweed (Monochoria vaginalis); conditions: application during weed generation, submerged conditions
# How it was run: as §1
# barnyard grass = assay: Test Example 4: herbicidal effect by soil treatment (Table 19, symbol H); type: in vivo, barnyard grass (Echinochloa crus-galli)
# How it was run: (§2)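 Applied as a water-diluted emulsion, the compound was sprayed onto soil covering newly sown seeds. Evaluation came three weeks after application, in a greenhouse held at 25° C. to 30° C.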
# wild oat [3] = assay: Test Example 4: herbicidal effect by soil treatment (Table 19, symbol I); type: in vivo, wild oat (Avena fatua)
# How it was run: as §2
# Italian ryegrass = assay: Test Example 4: herbicidal effect by soil treatment (Table 19, symbol K); type: in vivo, Italian ryegrass (Lolium multiflorum)
# How it was run: as §2
# windgrass = assay: Test Example 4: herbicidal effect by soil treatment (Table 19, symbol L); type: in vivo, windgrass (Apera spica-venti)
# How it was run: as §2
# velvetleaf = assay: Test Example 4: herbicidal effect by soil treatment (Table 19, symbol M); type: in vivo, velvetleaf (Abutilon theophrasti)
# How it was run: as §2
# lambsquarters = assay: Test Example 4: herbicidal effect by soil treatment (Table 19, symbol O); type: in vivo, lambsquarters (Chenopodium album)
# How it was run: as §2
# chickweed [4] = assay: Test Example 4: herbicidal effect by soil treatment (Table 19, symbol P); type: in vivo, common chickweed (Stellaria media)
# How it was run: as §2
# persian speedwell = assay: Test Example 4: herbicidal effect by soil treatment (Table 19, symbol R); type: in vivo, Persian speedwell (Veronica persica)
# How it was run: as §2
# southern crabgrass = assay: Test Example 5: herbicidal effect by foliage application, plastic box (Table 20, symbol F); type: in vivo, southern crabgrass (Digitaria ciliaris); conditions: foliage application, three weeks after application
# How it was run: (§3)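 Sow seeds spot-wise in sterilized diluvial soil; cover with ~1.5 cm soil. Grow 14 days in greenhouse, 25° C. to 30° C. Spray foliage with emulsion diluted to predetermined amount. Rate effect after 3 weeks.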
# wild oat [5] = assay: Test Example 5: herbicidal effect by foliage application, plastic box (Table 20, symbol I); type: in vivo, wild oat (Avena fatua); conditions: foliage application, three weeks after application
# How it was run: as §3
# chickweed [6] = assay: Test Example 5: herbicidal effect by foliage application, plastic box (Table 20, symbol P); type: in vivo, common chickweed (Stellaria media); conditions: foliage application, 320 g/ha, three weeks after application
# How it was run: as §3
# false cleavers = assay: Test Example 5: herbicidal effect by foliage application, plastic box (Table 20, symbol Q); type: in vivo, false cleavers (Galium spurium); conditions: foliage application, three weeks after application
# How it was run: as §3
# [7] = amount of applied herbicide 320 g/ha
# [8] = amount of applied herbicide 390 g/ha
Structure (SMILES),"Herbicidal effect, C: oval-leafed pondweed (oval-leafed pondweed [1]; [7])","herbicidal effect rating, A: late watergrass (late watergrass; AAH 320 g/ha)","herbicidal effect rating, B: Japanese bulrush (Japanese bulrush; AAH 320 g/ha)","herbicidal effect rating, C: oval-leafed pondweed (oval-leafed pondweed [2]; AAH 320 g/ha)","H: barnyard grass, herbicidal effect grade (barnyard grass; [7])","I: wild oat, herbicidal effect grade (wild oat [3]; [7])","K: Italian ryegrass, herbicidal effect grade (Italian ryegrass; [7])","L: windgrass, herbicidal effect grade (windgrass; [7])","M: velvetleaf, herbicidal effect grade (velvetleaf; [7])","O: lambsquarters, herbicidal effect grade (lambsquarters; [7])","P: chickweed, herbicidal effect grade (chickweed [4]; [7])","R: persian speedwell, herbicidal effect grade (persian speedwell; [7])",herbicidal effect on southern crabgrass (F) (southern crabgrass; 320 g/ha),herbicidal effect on wild oat (I) (wild oat [5]; 320 g/ha),herbicidal effect on false cleavers (Q) (false cleavers; 320 g/ha),other results
CCCC(=O)Oc1c(C)nn(C)c(=O)c1-c1c(-c2ccccc2OCC)sc2cc(Cl)ccc12 [3-040],2 (Herbicidal rate of 20% or more and less than 40%),2 (Herbicidal rate of 20% or more and less than 40%),2 (Herbicidal rate of 20% or more and less than 40%),3 (Herbicidal rate of 40% or more and less than 70%),0 (Herbicidal rate of 5% or less (almost no effect)),0 (Herbicidal rate of 5% or less (almost no effect)),0 (Herbicidal rate of 5% or less (almost no effect)),5 (Herbicidal rate of 90% or more (almost completely withered)),3 (Herbicidal rate of 40% or more and less than 70%),3 (Herbicidal rate of 40% or more and less than 70%),4 (Herbicidal rate of 70% or more and less than 90%),4 (Herbicidal rate of 70% or more and less than 90%),–,–,–,"F: southern crabgrass, herbicidal effect grade (southern crabgrass; 320 g/ha): 4 (Herbicidal rate of 70% or more and less than 90%); I: wild oat, herbicidal effect grade (wild oat [5]; 320 g/ha): 1 (Herbicidal rate of 5% or more and less than 20%); P: chickweed, herbicidal effect grade (chickweed [6]): 5 (Herbicidal rate of 90% or more (almost completely withered)); Q: false cleavers, herbicidal effect grade (false cleavers; 320 g/ha): 5 (Herbicidal rate of 90% or more (almost completely withered))"
CCOc1ccc2c(-c3c(O)c(C)nn(C)c3=O)c(-c3ccccc3OC)sc2c1Cl [7-003],0 (Herbicidal rate of 5% or less (almost no effect)),0 (Herbicidal rate of 5% or less (almost no effect)),3 (Herbicidal rate of 40% or more and less than 70%),0 (Herbicidal rate of 5% or less (almost no effect)),0 (Herbicidal rate of 5% or less (almost no effect)),0 (Herbicidal rate of 5% or less (almost no effect)),0 (Herbicidal rate of 5% or less (almost no effect)),0 (Herbicidal rate of 5% or less (almost no effect)),3 (Herbicidal rate of 40% or more and less than 70%),4 (Herbicidal rate of 70% or more and less than 90%),4 (Herbicidal rate of 70% or more and less than 90%),5 (Herbicidal rate of 90% or more (almost completely withered)),1 (Herbicidal rate of 5% or more and less than 20%),0 (Herbicidal rate of 5% or less (almost no effect)),5 (Herbicidal rate of 90% or more (almost completely withered)),–
CCCC(=O)Oc1c(C)nn(C)c(=O)c1-c1c(-c2ccc(F)cc2)oc2ccc(C)cc12 [9-005],–,–,–,–,–,–,–,–,–,–,–,–,–,–,–,"Herbicidal effect, C: oval-leafed pondweed (oval-leafed pondweed [1]; [8]): 3 (Herbicidal rate of 40% or more and less than 70%); herbicidal effect rating, A: late watergrass (late watergrass; AAH 390 g/ha): 0 (Herbicidal rate of 5% or less (almost no effect)); herbicidal effect rating, B: Japanese bulrush (Japanese bulrush; AAH 390 g/ha): 1 (Herbicidal rate of 5% or more and less than 20%); herbicidal effect rating, C: oval-leafed pondweed (oval-leafed pondweed [2]; AAH 390 g/ha): 3 (Herbicidal rate of 40% or more and less than 70%); H: barnyard grass, herbicidal effect grade (barnyard grass; [8]): 0 (Herbicidal rate of 5% or less (almost no effect)); I: wild oat, herbicidal effect grade (wild oat [3]; [8]): 0 (Herbicidal rate of 5% or less (almost no effect)); K: Italian ryegrass, herbicidal effect grade (Italian ryegrass; [8]): 0 (Herbicidal rate of 5% or less (almost no effect)); L: windgrass, herbicidal effect grade (windgrass; [8]): 0 (Herbicidal rate of 5% or less (almost no effect)); M: velvetleaf, herbicidal effect grade (velvetleaf; [8]): 0 (Herbicidal rate of 5% or less (almost no effect)); O: lambsquarters, herbicidal effect grade (lambsquarters; [8]): 3 (Herbicidal rate of 40% or more and less than 70%); P: chickweed, herbicidal effect grade (chickweed [4]; [8]): 5 (Herbicidal rate of 90% or more (almost completely withered)); R: persian speedwell, herbicidal effect grade (persian speedwell; [8]): 3 (Herbicidal rate of 40% or more and less than 70%); herbicidal effect on southern crabgrass (F) (southern crabgrass; 390 g/ha): 0 (Herbicidal rate of 5% or less (almost no effect)); herbicidal effect on wild oat (I) (wild oat [5]; 390 g/ha): 0 (Herbicidal rate of 5% or less (almost no effect)); herbicidal effect on false cleavers (Q) (false cleavers; 390 g/ha): 4 (Herbicidal rate of 70% or more and less than 90%)"
COc1ccc(-c2oc3ccc(C)cc3c2-c2c(O)c(C)nn(C)c2=O)cc1 [9-007],5 (Herbicidal rate of 90% or more (almost completely withered)),4 (Herbicidal rate of 70% or more and less than 90%),5 (Herbicidal rate of 90% or more (almost completely withered)),5 (Herbicidal rate of 90% or more (almost completely withered)),3 (Herbicidal rate of 40% or more and less than 70%),1 (Herbicidal rate of 5% or more and less than 20%),5 (Herbicidal rate of 90% or more (almost completely withered)),0 (Herbicidal rate of 5% or less (almost no effect)),3 (Herbicidal rate of 40% or more and less than 70%),4 (Herbicidal rate of 70% or more and less than 90%),4 (Herbicidal rate of 70% or more and less than 90%),5 (Herbicidal rate of 90% or more (almost completely withered)),5 (Herbicidal rate of 90% or more (almost completely withered)),4 (Herbicidal rate of 70% or more and less than 90%),1 (Herbicidal rate of 5% or more and less than 20%),–
CCCC(=O)Oc1c(C)nn(C)c(=O)c1-c1c(-c2ccc(OC)cc2)oc2ccc(C)cc12 [9-008],5 (Herbicidal rate of 90% or more (almost completely withered)),1 (Herbicidal rate of 5% or more and less than 20%),5 (Herbicidal rate of 90% or more (almost completely withered)),5 (Herbicidal rate of 90% or more (almost completely withered)),3 (Herbicidal rate of 40% or more and less than 70%),0 (Herbicidal rate of 5% or less (almost no effect)),4 (Herbicidal rate of 70% or more and less than 90%),0 (Herbicidal rate of 5% or less (almost no effect)),0 (Herbicidal rate of 5% or less (almost no effect)),4 (Herbicidal rate of 70% or more and less than 90%),0 (Herbicidal rate of 5% or less (almost no effect)),4 (Herbicidal rate of 70% or more and less than 90%),3 (Herbicidal rate of 40% or more and less than 70%),3 (Herbicidal rate of 40% or more and less than 70%),0 (Herbicidal rate of 5% or less (almost no effect)),–
